Where two headings read alike, the source gives them in different places.

Experiment [1] addresses T1, mTOR (Homo sapiens, UniProt P42345).
T1 construct: 2.5 μl of 0.6 μg/ml of mTOR Enzyme (Amgen) was added to rows 1-23
In words: mTOR LanthaScreen (TR-FRET, phosphorylation of 4EBP1). Type of experiment: biochemical. As to conditions: read-out: AA11016+++mTor_MA_IC50_IP. On the procedure:
The mTOR LanthaScreen is a TR-FRET assay measuring the phosphorylation of mTOR's substrate 4EBP1. 384 well compound plates were prepared containing 1 μl of compound per well starting at 5 mM and diluted 1:2 across the row, resulting in a 22 well serial dilution.
The assay was conducted on the PerkinElmer® FlexDrop PLUS. A 5 μl mix of 800 nM GFP-4E-BP1 (Invitrogen, PV4759) and 20 μM ATP (Amgen) was added to rows 1-24. 2.5 μl of 0.6 μg/ml of mTOR Enzyme (Amgen) was added to rows 1-23. 2.5 μl of assay buffer was added to row 24 for the low control. […] The final concentrations in the assay reagents were 400 nM GFP-4E-BP1, 10 μM of ATP and 0.15 μg/ml of mTOR enzyme. The compound, enzyme, and substrate incubate for 90 minutes.
On the technique in general: TR-FRET usually uses a lanthanide donor and a delayed reading to cut background.

Experiment [2] deals with PI3Ka (Homo sapiens, UniProt P42336). The experiment can be described thus: PI3Ka Alpha assay. It is filed as biochemical. The conditions noted are these: the values are: IC50.
Experiment [3] deals with phosphorylation of Akt at Serine 473. In words: pAkt AlphaScreen in U87 MG cells. It is filed as cell-based. As to conditions: read-out: AA11809+++pAKT_U87_IC50_IP. The protocol: The pAkt AlphaScreen assay determines whether there is phosphorylation of Akt at Serine 473 by recruitment of a phosphospecific antibody. This assay was performed using U87 MG cells. […] The cells were maintained weekly using 0.05% Trypsin (Gibco, 25300-054) and replated in 150 mm TC—Treated Culture Dishes (Corning, 430599).
The first day of the assay, the adherent cells were trypsinized, media was added to the loose cells and cells were mixed to a homogenous mixture. 0.5 ml of the homogenous mixture was counted on the Beckman Coulter® Vi-CELL™ XR. 50 frames of cells were counted and the number of viable cells was determined. The cells were then diluted to 0.25 million cells per ml, and centrifuged at 200 rcf for 5 minutes. The media was removed and the cells were reconstituted in fresh media for plating. The cells were plated at 20 μl per well on the PerkinElmer® FlexDrop PLUS in Low Volume 384 Well White Tissue Culture Plates (Corning, 3826) with a final cell density of 5K cells per well. The plates were incubated overnight at 37° Celsius, 5% CO2.
On the second day, the compound plates were prepared, the cells were treated with compound and the pAkt reaction mix was added to the cell lysate. 384 well compound plates were prepared by Amgen's Sample Bank containing […] of compound per well starting at 5 mM and diluted 1:2 across the row, resulting in a 22 well serial dilution. 39 μl of growth media was added to the compound plate in rows 1-22 using the PerkinElmer® FlexDrop PLUS resulting in a DMSO concentration of 2.5%. The control columns were added manually; 40 μl of 2.5% DMSO (Sigma, D4540-100 ml) in growth media was added to the plate for the high control and 40 μl of 50 μM of AMG2203766 with 2.5% DMSO was added to the plate as the low control. The cell plates and diluted compound plates were put onto the VELOCITY1 1™ VPREP™ 384 ST where the compound plate was mixed and 5 μl of serially diluted compound or controls was added to the cell plate. […] The cell plates were then incubated with compound for two hours at 37° Celsius, 5% CO2. After two hours, the media in the cell plates was aspirated using the BioTek® ELx405HT plate washer removing the majority of media and compound without disturbing the adherent U87 cells. The following assay reagents are components of the SureFire Akt (Ser 473) Phosphorylation 50K Point Kit (TGR BioSciences, TGRAS50K) and an IgG Detection Kit (PerkinElmer, 6760617R). […] The plates were then incubated at room temperature on a shaker for ten minutes. The AlphaScreen reaction was prepared under low light conditions (subdued or green light) including p-Akt (Ser 473) Reaction Buffer, Dilution Buffer, Activation Buffer, Acceptor Beads and Donor Beads at a ratio of 40:20:10:1:1 respectively. The AlphaScreen reaction was added to the cell lysate at 6 μl per well using the PerkinElmer® FlexDrop PLUS. The plates were placed in a humid environment to reduce edge effects and incubated overnight at room temperature with restricted air flow in the dark.
On the final day of the experiment, the plates were read on the PerkinElmer® EnVision™ 2103 Multilable Reader using the standard AlphaScreen readout. The POC is calculated and the data is analyzed to report the IC50 IP for pAkt at Serine 473.

[4] abbreviates: U87 MG cells, two hours with compound.
Where [5] appears, read: Homo sapiens, U-87 MG, 2 h, U87 MG cells, two hours with compound.

Chain of PI3Ka (P42336 whole entry): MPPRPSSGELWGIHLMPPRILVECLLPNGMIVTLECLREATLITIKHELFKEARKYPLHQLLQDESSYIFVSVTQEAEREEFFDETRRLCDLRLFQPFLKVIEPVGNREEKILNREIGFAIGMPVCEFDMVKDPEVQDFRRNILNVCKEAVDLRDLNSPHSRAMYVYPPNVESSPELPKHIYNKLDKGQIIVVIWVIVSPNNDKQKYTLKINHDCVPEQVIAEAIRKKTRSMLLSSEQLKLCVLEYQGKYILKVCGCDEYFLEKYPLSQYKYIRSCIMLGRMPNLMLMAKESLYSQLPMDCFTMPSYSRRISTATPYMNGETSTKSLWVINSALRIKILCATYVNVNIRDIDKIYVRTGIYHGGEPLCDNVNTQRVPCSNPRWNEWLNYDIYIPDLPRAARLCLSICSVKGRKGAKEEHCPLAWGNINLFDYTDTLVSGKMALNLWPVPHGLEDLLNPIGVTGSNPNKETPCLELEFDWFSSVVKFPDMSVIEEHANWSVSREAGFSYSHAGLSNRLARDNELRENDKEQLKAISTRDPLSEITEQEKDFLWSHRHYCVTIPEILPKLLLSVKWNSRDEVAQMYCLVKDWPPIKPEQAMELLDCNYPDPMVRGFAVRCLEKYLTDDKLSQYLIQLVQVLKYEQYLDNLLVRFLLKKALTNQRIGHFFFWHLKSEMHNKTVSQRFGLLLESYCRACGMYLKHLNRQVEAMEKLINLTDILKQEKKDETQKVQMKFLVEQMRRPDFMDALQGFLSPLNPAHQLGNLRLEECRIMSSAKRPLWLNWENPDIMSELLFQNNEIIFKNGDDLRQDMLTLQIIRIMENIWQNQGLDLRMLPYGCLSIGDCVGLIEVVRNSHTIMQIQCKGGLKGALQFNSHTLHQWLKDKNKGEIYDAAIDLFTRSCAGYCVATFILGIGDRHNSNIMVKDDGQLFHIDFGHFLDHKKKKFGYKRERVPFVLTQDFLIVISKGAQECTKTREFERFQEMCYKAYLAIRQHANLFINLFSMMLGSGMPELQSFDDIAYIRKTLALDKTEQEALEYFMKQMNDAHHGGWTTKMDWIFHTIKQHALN
Chain of PI3Ka (P27986 whole entry partner): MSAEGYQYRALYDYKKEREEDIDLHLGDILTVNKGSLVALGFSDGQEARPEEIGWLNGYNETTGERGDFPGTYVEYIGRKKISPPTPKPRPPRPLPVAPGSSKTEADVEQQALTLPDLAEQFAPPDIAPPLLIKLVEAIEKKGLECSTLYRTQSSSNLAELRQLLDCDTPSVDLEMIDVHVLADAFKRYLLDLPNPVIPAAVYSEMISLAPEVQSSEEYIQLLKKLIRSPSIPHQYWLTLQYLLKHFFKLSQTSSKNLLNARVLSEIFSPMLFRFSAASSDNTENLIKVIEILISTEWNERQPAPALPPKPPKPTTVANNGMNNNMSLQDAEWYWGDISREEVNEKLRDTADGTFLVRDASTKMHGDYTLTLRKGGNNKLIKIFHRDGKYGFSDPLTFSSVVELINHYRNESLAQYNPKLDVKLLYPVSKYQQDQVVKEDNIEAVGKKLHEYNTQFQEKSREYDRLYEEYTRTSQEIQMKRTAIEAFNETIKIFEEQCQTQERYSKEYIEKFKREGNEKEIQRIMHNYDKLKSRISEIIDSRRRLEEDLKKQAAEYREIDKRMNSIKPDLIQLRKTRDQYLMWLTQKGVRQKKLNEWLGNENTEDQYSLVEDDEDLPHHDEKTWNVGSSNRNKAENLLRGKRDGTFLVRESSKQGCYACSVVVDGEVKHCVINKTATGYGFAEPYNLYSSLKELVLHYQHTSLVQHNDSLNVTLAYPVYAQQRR

On to “1-(4-amino-6-methyl-1,3,5-triazin-2-yl)-N-(6-methoxy-3-pyridinyl)-1H-benzimidazol-2-amine [Cpd 151]”, for which the IC50 turned out to be 124 nM in experiment [1] and 88.9 nM in experiment [3] (setting [4]). Also, in experiment [2], the AA12047+++PI3Ka Alpha IC50 IP came to 4550 nM.

For “1-(4-amino-6-methyl-1,3,5-triazin-2-yl)-N-cyclopropyl-1H-benzimidazol-2-amine [Cpd 61]”, the results for the IC50 in experiment [1] and in experiment [3] (setting [4]) were 10800 nM and 1040 nM, respectively. In experiment [2], this compound had an AA12047+++PI3Ka Alpha IC50 IP of 3830 nM.

For the compound “1-(4-((cyclopropylmethyl)amino)-6-methyl-1,3,5-triazin-2-yl)-N-1H-pyrazol-3-yl-1H-benzimidazol-2-amine [Cpd 170]”, the values for the IC50 in experiment [1] and in experiment [3] (setting [4]) were 1170 nM and 1680 nM, respectively. The same compound displayed an AA12047+++PI3Ka Alpha IC50 IP in experiment [2] of 1370 nM.

In turn, “1-(4-amino-6-methyl-1,3,5-triazin-2-yl)-N-(1-(4-morpholinylcarbonyl)-1H-pyrazol-4-yl)-1H-benzimidazol-2-amine [Cpd 198]” yielded an AA12047+++PI3Ka Alpha IC50 IP in experiment [2] of 2550 nM.

Turning to `CNc1nc(C)nc(-n2c(Nc3cc[nH]n3)nc3cc(C)c(C)cc32)n1` [Cpd 138], the results for the IC50 in experiment [1] and in experiment [3] (setting [5]) were 38.7 nM and 158 nM, respectively. The compound further had an AA12047+++PI3Ka Alpha IC50 IP in experiment [2] of 1390 nM.

In the case of “3-((4-methyl-6-(2-(1H-pyrazol-3-ylamino)-1H-benzimidazol-1-yl)-1,3,5-triazin-2-yl)amino)propanenitrile [Cpd 141]”, in experiment [3] (setting [4]), the IC50 came to 203 nM.

Regarding “1-(4-((1-(4-amino-6-methyl-1,3,5-triazin-2-yl)-1H-benzimidazol-2-yl)amino)phenyl)-3-(3,5-dichlorophenyl)thiourea [Cpd 108]”, the IC50 in experiment [1] was determined as 2290 nM; in experiment [3] (setting [4]), 1070 nM. This compound displayed an AA12047+++PI3Ka Alpha IC50 IP in experiment [2] of 470 nM.

In the case of “1-(4-amino-6-methyl-1,3,5-triazin-2-yl)-N-1H-pyrazol-5-yl-5-(4-pyridinyl)-1H-benzimidazol-2-amine [Cpd 144]”, the values for the IC50 in experiment [1] and in experiment [3] (setting [4]) were 66.6 nM and 125 nM, respectively. The compound also came in with an AA12047+++PI3Ka Alpha IC50 IP in experiment [2] of 7260 nM.

In the case of `CNC(=O)Nc1ccc(Nc2nc3ccccc3n2-c2nc(C)nc(NCC#N)n2)cc1` [Cpd 111], the IC50 in experiment [1] is 0.765 nM; in experiment [3] (setting [5]) it was 69.9 nM. Moreover, the AA12047+++PI3Ka Alpha IC50 IP in experiment [2] is 52.8 nM.

As for `Cc1nc(N)nc(-n2c(Nc3ccn[nH]3)nc3cc(F)c(F)cc32)n1` [Cpd 9, 1-(4-amino-6-methyl-1,3,5-triazin-2-yl)-5,6-difluoro-N-1H-pyrazol-5-yl-1H-benzimidazol-2-amine], the IC50 stood at 24.3 nM in experiment [1] and 44.6 nM in experiment [3] (Homo sapiens, U-87 MG, 2 h). Moreover, the AA12047+++PI3Ka Alpha IC50 IP in experiment [2] was 485 nM.

On to `Cc1nc(N)nc(-n2c(Nc3cccc(O)c3)nc3ccc(C(=O)O)cc32)n1` [Cpd 2, 1-(4-amino-6-methyl-1,3,5-triazin-2-yl)-2-((3-hydroxyphenyl)amino)-1H-benzimidazole-6-carboxylic acid], for which the IC50 is 1.38 nM in experiment [1] and 224 nM in experiment [3] (setting [5]).

For `Cc1nc(N)nc(-n2c(Nc3ccc(NC(=O)Nc4ccncc4)cc3)nc3ccccc32)n1` [Cpd 115], the IC50 in experiment [1] worked out at 4.4 nM; in experiment [3] (setting [5]) it was 132 nM. This compound also had an AA12047+++PI3Ka Alpha IC50 IP in experiment [2] of 7.31 nM.

As for `Cc1nc(N)nc(-n2c(Nc3cnn(C(=O)N4CCOCC4)c3)nc3ccccc32)n1` [Cpd 201], in experiment [2], the AA12047+++PI3Ka Alpha IC50 IP amounted to 3520 nM. Further, the IC50 in experiment [3] (setting [5]) is 652 nM.

Take “1-(4-methyl-6-((2-(4-morpholinyl)ethyl)amino)-1,3,5-triazin-2-yl)-N-1H-pyrazol-3-yl-1H-benzimidazol-2-amine [Cpd 156]”: the IC50 in experiment [1] turned out to be 183 nM; in experiment [3] (setting [4]), 54.7 nM. This compound also returned an AA12047+++PI3Ka Alpha IC50 IP in experiment [2] of 14.6 nM.

Turning to “4-((1-(4-amino-6-methyl-1,3,5-triazin-2-yl)-1H-benzimidazol-2-yl)amino)-N-4-pyridinylbenzamide [Cpd 157]”, the IC50 in experiment [1] stood at 194 nM; in experiment [3] (setting [4]) it was 767 nM. In experiment [2], this compound came in with an AA12047+++PI3Ka Alpha IC50 IP of 31800 nM.

On to `Cc1nc(N)nc(-n2c(Nc3cc(O)cc(O)c3)nc3ccccc32)n1` [Cpd 1, 5-((1-(4-amino-6-methyl-1,3,5-triazin-2-yl)-1H-benzimidazol-2-yl)amino)-1,3-benzenediol], for which the IC50 in experiment [1] was found to be 0.269 nM; in experiment [3] (Homo sapiens, U-87 MG, 2 h), 4.96 nM. Besides, the AA12047+++PI3Ka Alpha IC50 IP in experiment [2] came to 0.646 nM.

For the origin of these results see US20120165334A1, “Indole/Benzimidazole Compounds as mTOR Kinase Inhibitors” (AMGEN INC., priority 2009, published 2012).
